# pIC50: −log10 of the molar value. Read-outs that look alike come from different tables or passages of the source. Numbered stars: 1 amine (or outer) side, 2 acyl side, 3 side chain; on linkers, the order of the positions; unused ones are H or OH. Bridge positions count the residues as written; N and C are the ends. Square brackets hold non-standard residues; d marks the D form. Peptide text beside a SMILES is read from it. Phe(4-COOH) = N[C@@H](Cc1ccc(C(=O)O)cc1)C(=O)O; Bip = N[C@@H](Cc1ccc(-c2ccccc2)cc1)C(=O)O; dBip = N[C@H](Cc1ccc(-c2ccccc2)cc1)C(=O)O; Phe(4-NH2) = Nc1ccc(C[C@H](N)C(=O)O)cc1; d(hPhe) = N[C@H](CCc1ccccc1)C(=O)O; hPhe = N[C@@H](CCc1ccccc1)C(=O)O; Suc = O=C(CCC(=O)[*:2])[*:1]; Ava = NCCCCC(=O)O; GABA = NCCCC(=O)O; βAla = NCCC(=O)O
# Target: T1, TNFα / TNFα receptor (TNFα R1/Fc) (Homo sapiens, UniProt P01375)
# T1 construct: purchased R&D Systems
# T1 sequence (P01375 77-233 limits assumed, species assumed): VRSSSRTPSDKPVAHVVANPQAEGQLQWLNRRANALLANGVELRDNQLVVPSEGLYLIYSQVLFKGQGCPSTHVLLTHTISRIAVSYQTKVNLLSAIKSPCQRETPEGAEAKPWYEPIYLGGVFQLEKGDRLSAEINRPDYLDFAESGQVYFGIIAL
# Assay: Inhibition of binding of TNFα to the TNFα receptor (plate ELISA competition)
# Details: Table 2
# Outline: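 Plates were coated with TNFα at 15 nM. Test compound and 8.33 nM receptor-Fc (PBST, 2% DMSO) were first mixed in solution for 30 min at room temperature, then transferred to the plates for another 30 min. Competition was read by absorbance at 450 nm after HRP anti-human IgG Fc detection with TMB.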
# [1] = read-out: Activity (IC50, inhibition of TNFα binding to TNFα R1/Fc)
# [2] = Activity (IC50, inhibition of TNFα binding to TNFα R1/Fc)
pIC50 [1],SMILES,pIC50 [2]
< 4.00,C[C@@H](NC(=O)[C@@H]1Cc2ccc(cc2)NC(=O)CCC(=O)N[C@H](Cc2ccccc2)C(=O)N[C@@H](Cc2ccc(-c3ccccc3)cc2)C(=O)N[C@H](CCc2ccccc2)C(=O)N1)C(=O)O [Compound 457] ([dF][Bip][d(hPhe)][Phe(4-NH2)][dA]-OH; linker N-4 via Suc),
< 4.00,C[C@H](NC(=O)[C@@H]1Cc2ccc(cc2)NC(=O)CCC(=O)N[C@H](Cc2ccccc2)C(=O)N[C@@H](Cc2ccc(-c3ccccc3)cc2)C(=O)N[C@H](CCc2ccccc2)C(=O)N1)C(=O)O [Compound 458] ([dF][Bip][d(hPhe)][Phe(4-NH2)]A-OH; linker N-4 via Suc),
< 4.00,O=C(O)CCNC(=O)[C@@H]1Cc2ccc(cc2)NC(=O)CCC(=O)N[C@H](Cc2ccccc2)C(=O)N[C@@H](Cc2ccc(-c3ccccc3)cc2)C(=O)N[C@H](CCc2ccccc2)C(=O)N1 [Compound 459] ([dF][Bip][d(hPhe)][Phe(4-NH2)][βAla]-OH; linker N-4 via Suc),
< 4.00,O=C(O)CCCNC(=O)[C@@H]1Cc2ccc(cc2)NC(=O)CCC(=O)N[C@H](Cc2ccccc2)C(=O)N[C@@H](Cc2ccc(-c3ccccc3)cc2)C(=O)N[C@H](CCc2ccccc2)C(=O)N1 [Compound 460] ([dF][Bip][d(hPhe)][Phe(4-NH2)][GABA]-OH; linker N-4 via Suc),
< 4.00,O=C(O)CCCCNC(=O)[C@@H]1Cc2ccc(cc2)NC(=O)CCC(=O)N[C@H](Cc2ccccc2)C(=O)N[C@@H](Cc2ccc(-c3ccccc3)cc2)C(=O)N[C@H](CCc2ccccc2)C(=O)N1 [Compound 461] ([dF][Bip][d(hPhe)][Phe(4-NH2)][Ava]-OH; linker N-4 via Suc),
< 4.00,O=C(O)CNC(=O)[C@@H]1Cc2ccc(cc2)NC(=O)CCC(=O)N[C@H](Cc2ccccc2)C(=O)N[C@@H](Cc2ccc(-c3ccccc3)cc2)C(=O)N[C@H](CCc2ccccc2)C(=O)N1 [Compound 462] ([dF][Bip][d(hPhe)][Phe(4-NH2)]G-OH; linker N-4 via Suc),
< 4.00,O=C1CCNC(=O)c2ccc(cc2)C[C@@H](C(=O)O)NC(=O)[C@H](Cc2ccccc2)NC(=O)[C@H](Cc2ccc(-c3ccccc3)cc2)NC(=O)[C@H](CCc2ccccc2)N1 [Compound 463] ([βAla][hPhe][Bip]F[Phe(4-COOH)]-OH; lactam N-5),
> 5.00,O=C1CCNC(=O)c2ccc(cc2)C[C@@H](C(=O)O)NC(=O)[C@H](Cc2ccccc2)NC(=O)[C@H](Cc2ccc(-c3ccccc3)cc2)NC(=O)[C@@H](CCc2ccccc2)N1 [Compound 464] ([βAla][d(hPhe)][Bip]F[Phe(4-COOH)]-OH; lactam N-5),
> 5.00,O=C1CCNC(=O)c2ccc(cc2)C[C@@H](C(=O)O)NC(=O)[C@H](Cc2ccccc2)NC(=O)[C@@H](Cc2ccc(-c3ccccc3)cc2)NC(=O)[C@H](CCc2ccccc2)N1 [Compound 465] ([βAla][hPhe][dBip]F[Phe(4-COOH)]-OH; lactam N-5),
< 4.00,O=C1CCNC(=O)c2ccc(cc2)C[C@@H](C(=O)O)NC(=O)[C@H](Cc2ccccc2)NC(=O)[C@@H](Cc2ccc(-c3ccccc3)cc2)NC(=O)[C@@H](CCc2ccccc2)N1 [Compound 466] ([βAla][d(hPhe)][dBip]F[Phe(4-COOH)]-OH; lactam N-5),
< 4.00,O=C1CCNC(=O)c2ccc(cc2)C[C@@H](C(=O)O)NC(=O)[C@@H](Cc2ccccc2)NC(=O)[C@H](Cc2ccc(-c3ccccc3)cc2)NC(=O)[C@H](CCc2ccccc2)N1 [Compound 467] ([βAla][hPhe][Bip][dF][Phe(4-COOH)]-OH; lactam N-5),
< 4.00,O=C1CCNC(=O)c2ccc(cc2)C[C@@H](C(=O)O)NC(=O)[C@@H](Cc2ccccc2)NC(=O)[C@@H](Cc2ccc(-c3ccccc3)cc2)NC(=O)[C@H](CCc2ccccc2)N1 [Compound 468] ([βAla][hPhe][dBip][dF][Phe(4-COOH)]-OH; lactam N-5),
< 4.00,O=C1CCNC(=O)c2ccc(cc2)C[C@@H](C(=O)O)NC(=O)[C@@H](Cc2ccccc2)NC(=O)[C@@H](Cc2ccc(-c3ccccc3)cc2)NC(=O)[C@@H](CCc2ccccc2)N1 [Compound 469] ([βAla][d(hPhe)][dBip][dF][Phe(4-COOH)]-OH; lactam N-5),
> 5.00,O=C1CCC(=O)N[C@H](CCc2ccccc2)C(=O)N[C@@H](Cc2ccc(-c3ccccc3)cc2)C(=O)N[C@H](Cc2ccccc2)C(=O)N[C@H](C(=O)N[C@@H](CCc2ccccc2)C(=O)O)Cc2ccc(cc2)N1 [Compound 470] ([d(hPhe)][Bip][dF][Phe(4-NH2)][hPhe]-OH; linker N-4 via Suc),
> 5.00,O=C1CCC(=O)N[C@H](CCc2ccccc2)C(=O)N[C@@H](Cc2ccc(-c3ccccc3)cc2)C(=O)N[C@H](Cc2ccccc2)C(=O)N[C@H](C(=O)N[C@@H](Cc2ccc(O)cc2)C(=O)O)Cc2ccc(cc2)N1 [Compound 471] ([d(hPhe)][Bip][dF][Phe(4-NH2)]Y-OH; linker N-4 via Suc),
> 5.00,O=C(O)CNC(=O)[C@@H]1Cc2ccc(cc2)OCC(=O)N[C@@H](Cc2cccs2)C(=O)N[C@H](Cc2ccc(-c3ccccc3)cc2)C(=O)N[C@@H](CCc2ccccc2)C(=O)N1 [Compound 472],
> 5.00,C[C@H](NC(=O)[C@@H]1Cc2ccc(cc2)OCC(=O)N[C@@H](Cc2cccs2)C(=O)N[C@H](Cc2ccc(-c3ccccc3)cc2)C(=O)N[C@@H](CCc2ccccc2)C(=O)N1)C(=O)O [Compound 473],
> 5.00,O=C(O)CCNC(=O)[C@@H]1Cc2ccc(cc2)OCC(=O)N[C@@H](Cc2cccs2)C(=O)N[C@H](Cc2ccc(-c3ccccc3)cc2)C(=O)N[C@@H](CCc2ccccc2)C(=O)N1 [Compound 475],
> 5.00,CC(C)(NC(=O)[C@@H]1Cc2ccc(cc2)OCC(=O)N[C@@H](Cc2cccs2)C(=O)N[C@H](Cc2ccc(-c3ccccc3)cc2)C(=O)N[C@@H](CCc2ccccc2)C(=O)N1)C(=O)O [Compound 477],
> 5.00,O=C1COc2ccc(cc2)C[C@@H](C(=O)NC2(C(=O)O)CC2)NC(=O)[C@H](CCc2ccccc2)NC(=O)[C@@H](Cc2ccc(-c3ccccc3)cc2)NC(=O)[C@H](Cc2cccs2)N1 [Compound 478],
> 5.00,O=C(O)CNC(=O)CNC(=O)[C@@H]1Cc2ccc(cc2)OCC(=O)N[C@@H](Cc2cccs2)C(=O)N[C@H](Cc2ccc(-c3ccccc3)cc2)C(=O)N[C@@H](CCc2ccccc2)C(=O)N1 [Compound 479],
,O=C1COc2ccc(cc2)C[C@@H](C(=O)N[C@H](Cc2ccccc2)C(=O)O)NC(=O)[C@H](CCc2ccccc2)NC(=O)[C@@H](Cc2ccc(-c3ccccc3)cc2)NC(=O)[C@H](Cc2cccs2)N1 [Compound 480],4.52 to 5.00
,O=C1COc2ccc(cc2)C[C@@H](C(=O)N[C@@H](Cc2ccccc2)C(=O)O)NC(=O)[C@H](CCc2ccccc2)NC(=O)[C@@H](Cc2ccc(-c3ccccc3)cc2)NC(=O)[C@H](Cc2cccs2)N1 [Compound 481],> 5.00
< 4.00,O=C1COc2ccc(cc2)C[C@@H](C(=O)NS(=O)(=O)c2ccccc2)NC(=O)[C@H](CCc2ccccc2)NC(=O)[C@@H](Cc2ccc(-c3ccccc3)cc2)NC(=O)[C@H](Cc2cccs2)N1 [Compound 483],
< 4.00,Cc1ccc(S(=O)(=O)NCCNC(=O)[C@@H]2Cc3ccc(cc3)OCC(=O)N[C@@H](Cc3cccs3)C(=O)N[C@H](Cc3ccc(-c4ccccc4)cc3)C(=O)N[C@@H](CCc3ccccc3)C(=O)N2)cc1 [Compound 484],

# Source: patent US8338565B2, “Macrocyclic compounds for inhibition of tumor necrosis factor alpha” (Ensemble Therapeutics Corporation, priority 2008, dated 2012)
